Laboratory results reported in patent US20250127912A1, “COMPOSITIONS FOR DELIVERY OF POLYNUCLEOTIDES” (miRecule, Inc., priority 2021, published 2025).
No end group written: not given here. PEG1000 = N-terminal 1 kDa PEG spacer; PEG5000 = N-terminal 5 kDa PEG spacer; PEG2000 = PEG polymer of 2000 Da

How the values were obtained:
[1] = Serum stability of miRNA mimic M30m3 alone or with cationic peptide/hybrid polymer in 5% human serum (TBE-urea gel); settings: calculated based on first order decay comparing two time points; for Serum Stability at N/P1: M30m3 with polymer at N/P charge ratio 1, 37 C; for Serum Stability at N/P2: M30m3 with polymer at N/P charge ratio 2, 37 C
[2] = Biodistribution of IR750-NCD5 cetuximab conjugates in mice with orthotopic UM-SCC-1^luc tumors; settings: 5 mg/kg IR750-NCD5 cetuximab conjugate, N/P of 1; 24 and 48 hours

Row | Serum Stability at N/P1 [1] [h] | Serum Stability at N/P2 [1] [h] | Molecule | delivery to the tumor (IR-750 fluorescence) [2] | liver and kidney delivery (IR-750 fluorescence) [2]
1 | 20.78 | 17.33 | N=C(N)NCCCCN [Agmatine, reference compound] | – | –
2 | 7.179 | 12.26 | N=C(N)NCCC[C@H](N)C(=O)O [Arginine, reference compound] | – | –
3 | 34.91 | 18.1 | N=C(N)NCCC[C@H](NC(=O)[C@H](CCCNC(=N)N)NC(=O)[C@H](CCCNC(=N)N)NC(=O)[C@H](CCCNC(=N)N)NC(=O)[C@H](CCCNC(=N)N)NC(=O)[C@H](CCCNC(=N)N)NC(=O)[C@H](CCCNC(=N)N)NC(=O)[C@H](CCCNC(=N)N)NC(=O)[C@H](CCCNC(=N)N)NC(=O)[C@H](CCCNC(=N)N)NC(=O)[C@H](CCCNC(=N)N)NC(=O)[C@H](CCCNC(=N)N)NC(=O)[C@@H](N)CS)C(=O)N[C@@H](CS)C(=O)O [CPolyArg12C] | – | –
4 | 26.74 | 22.23 | NC(N)=NCCC[C@H](NC(=O)[C@H](CCCN=C(N)N)NC(=O)[C@H](CCCN=C(N)N)NC(=O)[C@H](CCCN=C(N)N)NC(=O)[C@H](CCCN=C(N)N)NC(=O)[C@@H](N)CCCN=C(N)N)C(=O)O [PolyArg6, RRRRRR] | – | –
5 | 25.99 | 31.12 | N=C(N)NCCC[C@H](NC(=O)[C@H](CCCNC(=N)N)NC(=O)[C@H](CCCNC(=N)N)NC(=O)[C@H](CCCNC(=N)N)NC(=O)[C@H](CCCNC(=N)N)NC(=O)[C@H](CCCNC(=N)N)NC(=O)[C@H](CCCNC(=N)N)NC(=O)[C@H](CCCNC(=N)N)NC(=O)[C@H](CCCNC(=N)N)NC(=O)[C@H](CCCNC(=N)N)NC(=O)[C@H](CCCNC(=N)N)NC(=O)[C@@H](N)CCCNC(=N)N)C(=O)N[C@@H](CS)C(=O)O [PolyArg12C] | – | –
6 | 18.95 | 12.98 | NCCCNCCCCNCCCN [Spermine, reference compound] | – | –
7 | 19.96 | 19.2 | RRRRRRRRRRRR-[NHS Ester-BranchedPEG2kda] [PolyArg12bp2kDa] | – | –
8 | 19.21 | 16.9 | RTRRTRRTRRTRRTRRTR [PolyArg12Tinsert] | – | –
9 | 25.6 | 18.06 | TTTTTTRRRRRRRRRRRR [T6PolyArg12] | – | –
10 | – | – | [PEG12]RRRRRRRRRRRR (N-terminal PEG12; MOD_RES 1 N-terminal PEG12 spacer) [PEG12PolyArg12] | markedly improves delivery to the tumor | reduces liver and kidney delivery

Row | Molecule | Serum Stability at N/P1 [1] [h] | Serum Stability at N/P2 [1] [h] | delivery to the tumor (IR-750 fluorescence) [2] | liver and kidney delivery (IR-750 fluorescence) [2]
11 | M048 Alone: miR-30 mimic duplex M30m3 without polymer; guide SEQ ID NO: 38, passenger SEQ ID NO: 39 (guide UGUAAACAUCCUGCGACUGGAAG; sense UCCAGUCGAGGAUGUUUACA; modified_base 11 cm; modified_base 14 cm; modified_base 17 cm; modified_base 12 um; modified_base 18 um; modified_base 13 gm; modified_base 15 gm; modified_base 19 gm; modified_base 23 gm; modified_base 16 OTHER; 2'-O-methyladenosine; modified_base 22 OTHER; 2'-fluoroadenosine; misc_feature 21..22 phosphorothioate linkage; misc_feature 22..23 phosphorothioate linkage; misc_feature 1 amino C6 linker; modified_base 1 um; modified_base 2 cm; modified_base 3 cm; modified_base 19 cm; modified_base 18 OTHER; modified_base 20 OTHER) | 21.57 | – | – | –
12 | [PEG12]RRRRRR [PEG12PolyArg6] | 19.74 | 27.96 | – | –
13 | [PEG12]RdRdRdRdRdRdRdRdRd [PEG12PolyArg9d] | 24.7 | 29.03 | – | –
14 | [PEG12]RdRdRdRdRdRdRdRdRdRdRdRd (RRRRRRRRRRRR; N-terminal PEG12; D-arginines; MOD_RES 1 N-terminal PEG12 spacer; MOD_RES 1..12 D-Arginine) [PEG12PolyArg12{d}] | 57.63 | 90.35 | – | –
15 | [PEG12][PEG12]RRRRRRRRRRRR (N-terminal PEG24; MOD_RES 1 N-terminal PEG24 spacer) [PEP24PolyArg12] | 21.21 | 39.41 | – | –
16 | [PEG1000]-RRRRRRRRRRRR (PEG1000-RRRRRRRRRRRR) [PEG1000DaPolyArg12] | 33.58 | 20.29 | – | –
17 | [PEG2000]-RRRRRRRRRRRR (PEG2000-RRRRRRRRRRRR) [PEG2000DaPolyArg12] | 15 | 46.67 | – | –
18 | [PEG5000]-RRRRRRRRRRRR (PEG5000-RRRRRRRRRRRR) [PEG5000DaPolyArg12] | 14.08 | 20.91 | – | –
